This is an account of results in patent US20230077362A1 (CORTEVA AGRISCIENCE LLC, priority 2019, published 2023).

Test [1] has as its system Beet Armyworm (Spodoptera exigua) ("BAW"), second instar larvae. The test can be described thus: Bioassay on beet armyworm (BAW), 128-well diet tray assay. To be noted: for pest or weed control at 50 µg/cm2: Spodoptera exigua; for BAW rating: Table ABC, species BAW, C = not tested, D = no activity noticed. The class given is in vivo. In outline: (§1)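 Covered trays were held at 25° C. under a 14:10 light-dark cycle for five to seven days. Percent mortality was then scored in each well, and activity across eight wells was averaged.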

Test [2] deals with Cabbage Looper (Trichoplusia ni) ("CL"), second instar larvae. Nature of the test: Bioassay on cabbage looper (CL), 128-well diet tray assay. The note with it: for pest or weed control at 50 µg/cm2: Trichoplusia ni; for CL rating: Table ABC, species CL, C = not tested, D = no activity noticed. The test is classed as in vivo. In outline:
as §1

[3] abbreviates: read-out: BAW (Biological Results, rating).
[4] abbreviates: read-out: CL (Biological Results, rating).

Like-named read-outs stand apart in the source and are kept apart here.

Consider `Cc1ccc(Cc2cccc(F)c2)c(N2C(=O)CS/C2=N\C(=O)Nc2ccc(-c3ncn(-c4ccc(OC(F)(F)F)cc4)n3)cc2F)c1` [Compound J676, (Z)-1-(2-Fluoro-4-(1-(4-(trifluoromethoxy)phenyl)-1H-1,2,4-triazol-3-yl)phenyl)-3-(3-(2-(3-fluorobenzyl)-5-methylphenyl)-4-oxothiazolidin-2-ylidene)urea], for which the pest or weed control at 50 µg/cm2 in test [1] (read-out: BAW rating) and in test [2] (read-out: CL rating) was 50 to 100% throughout.
`Cc1ccc(C(C)C)c(N2C(=O)CS/C2=N\C(=O)Nc2ccc(-c3ncn(-c4ccc(OC(F)(F)F)cc4)n3)cc2O)c1` [Compound J175, (Z)-1-(2-hydroxy-4-(1-(4-(trifluoromethoxy)phenyl)-1H-1,2,4-triazol-3-yl)phenyl)-3-(3-(2-isopropyl-5-methylphenyl)-4-oxothiazolidin-2-ylidene)urea]: the pest or weed control at 50 µg/cm2 in test [1] (setting [3]) and in test [2] (setting [4]) was 50 to 100% each time.
On to `Cc1ccc(COCCF)c(N2C(=O)CS/C2=N\C(=O)Nc2ccc(-c3ncn(-c4ccc(OC(F)(F)F)cc4)n3)cc2C)c1` [Compound J558], for which the BAW rating result in test [1] was “A (50-100)”. Besides, the CL rating entry in test [2] is given as “A (50-100)”.
In the case of `CC(C)c1ccc(N(C)C)cc1N1C(=O)CS/C1=N\C(=O)Nc1ccc(-c2ncn(-c3ccc(SC(F)(F)F)cc3)n2)cc1F` [Compound J334, (Z)-1-(3-(5-(Dimethylamino)-2-isopropylphenyl)-4-oxothiazolidin-2-ylidene)-3-(2-fluoro-4-(1-(4-((trifluoromethyl)thio)phenyl)-1H-1,2,4-triazol-3-yl)phenyl)urea], the pest or weed control at 50 µg/cm2 in test [1] (setting [3]) and in test [2] (setting [4]) was 50 to 100% throughout.
With `CC(C)c1ccc(N(C)C)cc1N1C(=O)CS/C1=N\C(=O)Nc1ccc(-c2ncn(-c3ccc(S(=O)(=O)C(F)(F)F)cc3)n2)cc1C#N` [Compound J414, (Z)-1-(2-Cyano-4-(1-(4-((trifluoromethyl)sulfonyl)phenyl)-1H-1,2,4-triazol-3-yl)phenyl)-3-(3-(5-(dimethylamino)-2-isopropylphenyl)-4-oxothiazolidin-2-ylidene)urea], the pest or weed control at 50 µg/cm2 in test [1] (read-out: BAW rating) and in test [2] (read-out: CL rating) was 50 to 100% each time.
On to `COCc1ccc(C)cc1N1C(=O)CS/C1=N\C(=O)Nc1ccc(-n2cnc(-c3ccc(OC(F)(F)F)cc3)n2)cc1Cl` [Compound J730, (Z)-1-(2-Chloro-4-(3-(4-(trifluoromethoxy)phenyl)-1H-1,2,4-triazol-1-yl)phenyl)-3-(3-(2-(methoxymethyl)-5-methylphenyl)-4-oxothiazolidin-2-ylidene)urea], for which the pest or weed control at 50 µg/cm2 in test [1] (read-out: BAW rating) and in test [2] (read-out: CL rating) was 50 to 100% throughout.
With `CC(C)c1ccc(N(C)C)cc1N1C(=O)CS/C1=N\C(=O)Nc1ccc(-c2ncn(-c3ccc([S+]([O-])C(F)(F)F)cc3)n2)cc1F` (centres unmarked) [Compound J379, (Z)-1-(3-(5-(Dimethylamino)-2-isopropylphenyl)-4-oxothiazolidin-2-ylidene)-3-(2-fluoro-4-(1-(4-((trifluoromethyl)sulfinyl)phenyl)-1H-1,2,4-triazol-3-yl)phenyl)urea], the pest or weed control at 50 µg/cm2 in test [1] (read-out: BAW rating) and in test [2] (read-out: CL rating) was 50 to 100% throughout.
`COC(C)c1cc(C)ccc1N1C(=O)CS/C1=N\C(=O)Nc1ccc(-c2ncn(-c3ccc(C(F)(F)F)cn3)n2)cc1F` (centres unmarked) [Compound J300, (Z)-1-(2-Fluoro-4-(1-(5-(trifluoromethyl)pyridin-2-yl)-1H-1,2,4-triazol-3-yl)phenyl)-3-(3-(2-(1-methoxyethyl)-4-methylphenyl)-4-oxothiazolidin-2-ylidene)urea]: the pest or weed control at 50 µg/cm2 in test [1] (setting [3]) and in test [2] (setting [4]) was 50 to 100% each time.
In the case of `COc1ccc(C(C)C)c(N2C(=O)CS/C2=N\C(=O)Nc2ccc(-c3ncn(-c4ccc(OC(F)(F)F)cn4)n3)cc2C)c1` [Compound J252, (Z)-1-(3-(2-Isopropyl-5-methoxyphenyl)-4-oxothiazolidin-2-ylidene)-3-(2-methyl-4-(1-(5-(trifluoromethoxy)pyridin-2-yl)-1H-1,2,4-triazol-3-yl)phenyl)urea], the pest or weed control at 50 µg/cm2 in test [1] (setting [3]) and in test [2] (setting [4]) was 50 to 100% each time.
`CCC(C)Oc1ccc(C)cc1N1C(=O)CS/C1=N\C(=O)Nc1ccc(-c2ncn(-c3ccc(OC(F)(F)F)cc3)n2)cc1F` (centres unmarked) [Compound J51, (Z)-1-(3-(2-(sec-Butoxy)-5-methylphenyl)-4-oxothiazolidin-2-ylidene)-3-(2-fluoro-4-(1-(4-(trifluoromethoxy)phenyl)-1H-1,2,4-triazol-3-yl)phenyl)urea]: the pest or weed control at 50 µg/cm2 in test [1] (setting [3]) and in test [2] (setting [4]) was 50 to 100% throughout.
In the case of `CCOCc1ccc(C)cc1N1C(=O)CS/C1=N\C(=O)Nc1ccc(-c2cn(-c3ccc(S(F)(F)(F)(F)F)cc3)cn2)cc1C` [Compound J615, (Z)-1-(3-(2-(Ethoxymethyl)-5-methylphenyl)-4-oxothiazolidin-2-ylidene)-3-(2-methyl-4-(1-(4-(pentafluoro-λ^6-sulfaneyl)phenyl)-1H-imidazol-4-yl)phenyl)urea], the pest or weed control at 50 µg/cm2 in test [1] (read-out: BAW rating) and in test [2] (read-out: CL rating) was 50 to 100% in each case.
Take `CN(C)c1ccc(OCCC(F)(F)F)c(N2C(=O)CS/C2=N\C(=O)Nc2ccc(-c3ncn(-c4ccc(OC(F)(F)F)cc4)n3)cc2)c1` [Compound J321, (Z)-1-(3-(5-(Dimethylamino)-2-(3,3,3-trifluoropropoxy)phenyl)-4-oxothiazolidin-2-ylidene)-3-(4-(1-(4-(trifluoromethoxy)phenyl)-1H-1,2,4-triazol-3-yl)phenyl)urea]: the pest or weed control at 50 µg/cm2 in test [1] (setting [3]) and in test [2] (setting [4]) was 50 to 100% each time.
As for `Cc1ccc(N2C(=O)CS/C2=N\C(=O)Nc2ccc(-c3ncn(-c4ccc(C(F)(F)F)cn4)n3)cc2F)c(COCC(F)(F)F)c1` [Compound J451], the BAW rating entry in test [1] is reported as “A (50-100)”. The CL rating entry in test [2] is “A (50-100)”.
Turning to `CCc1ccc(COCC(F)(F)F)c(N2C(=O)CS/C2=N\C(=O)Nc2ccc(-c3ncn(-c4ccc(OC(F)(F)F)cc4)n3)cc2F)c1` [Compound J634], the BAW rating entry in test [1] is “A (50-100)”. For the same molecule, the CL rating entry in test [2] is reported as “A (50-100)”.
Regarding `CC(C)c1ccc(N(C)C)cc1N1C(=O)CS/C1=N\C(=O)Nc1ccc(-c2cn(-c3ccc(C(F)(F)F)cn3)cn2)cc1F` [Compound J481, (Z)-1-(3-(5-(Dimethylamino)-2-isopropylphenyl)-4-oxothiazolidin-2-ylidene)-3-(2-fluoro-4-(1-(5-(trifluoromethyl)pyridin-2-yl)-1H-imidazol-4-yl)phenyl)urea], the pest or weed control at 50 µg/cm2 in test [1] (read-out: BAW rating) and in test [2] (read-out: CL rating) was 50 to 100% each time.
Regarding `CCc1cc(-c2ncn(-c3ccc(OC(F)(F)F)cc3)n2)ccc1NC(=O)/N=C1\SCC(=O)N1c1cc(N(C)C)ccc1C(C)C` [Compound J83, (Z)-1-(3-(5-(Dimethylamino)-2-isopropylphenyl)-4-oxothiazolidin-2-ylidene)-3-(2-ethyl-4-(1-(4-(trifluoromethoxy)phenyl)-1H-1,2,4-triazol-3-yl)phenyl)urea], the pest or weed control at 50 µg/cm2 in test [1] (setting [3]) and in test [2] (setting [4]) was 50 to 100% throughout.
For `Cc1ccc(C(C)C)c(N2C(=O)CS/C2=N\C(=O)Nc2ccc(-c3nnc(-c4ccc(OC(F)(F)F)cc4)s3)cc2F)c1` [Compound J499, (Z)-1-(2-Fluoro-4-(5-(4-(trifluoromethoxy)phenyl)-1,3,4-thiadiazol-2-yl)phenyl)-3-(3-(2-isopropyl-5-methylphenyl)-4-oxothiazolidin-2-ylidene)urea], the pest or weed control at 50 µg/cm2 in test [1] (read-out: BAW rating) and in test [2] (read-out: CL rating) was 50 to 100% in each case.
On to `CC(C)c1ccc(N(C)C)cc1N1C(=O)CS/C1=N\C(=O)Nc1ccc(-c2ccn(-c3ccc(C(F)(F)F)nn3)n2)cc1F` [Compound J391], for which the pest or weed control at 50 µg/cm2 in test [1] (read-out: BAW rating) and in test [2] (read-out: CL rating) was 50 to 100% each time.
Consider `CC(C)c1ccc(N(C)C)cc1N1C(=O)CS/C1=N\C(=O)Nc1ccc(-c2ncn(-c3ccc(OC(F)(F)F)cc3)n2)cc1C(F)F` [Compound J213, (Z)-1-(2-(Difluoromethyl)-4-(1-(4-(trifluoromethoxy)phenyl)-1H-1,2,4-triazol-3-yl)phenyl)-3-(3-(5-(dimethylamino)-2-isopropylphenyl)-4-oxothiazolidin-2-ylidene)urea], for which the pest or weed control at 50 µg/cm2 in test [1] (setting [3]) and in test [2] (setting [4]) was 50 to 100% throughout.
Consider `CCCc1ccc(N(C)C)cc1N1C(=O)CS/C1=N\C(=O)Nc1ccc(-c2ncn(-c3ccc(C(F)(F)F)cn3)n2)cc1C` [Compound J294, (Z)-1-(3-(5-(Dimethylamino)-2-propylphenyl)-4-oxothiazolidin-2-ylidene)-3-(2-methyl-4-(1-(5-(trifluoromethyl)pyridin-2-yl)-1H-1,2,4-triazol-3-yl)phenyl)urea], for which the pest or weed control at 50 µg/cm2 in test [1] (setting [3]) and in test [2] (setting [4]) was 50 to 100% in each case.
For `Cc1cccc(N2C(=O)CS/C2=N\C(=O)Nc2ccc(-c3ncn(-c4ccc(C(F)(F)F)cc4)n3)cc2F)c1COCC(F)(F)F` [Compound J677], the BAW rating entry in test [1] was “A (50-100)”. Further, the CL rating entry in test [2] is “A (50-100)”.
`Cc1cc(-c2cn(-c3ccc(S(F)(F)(F)(F)F)cc3)cn2)ccc1NC(=O)/N=C1\SCC(=O)N1c1cc(N(C)C)ccc1C(C)C` [Compound J618, (Z)-1-(3-(5-(Dimethylamino)-2-isopropylphenyl)-4-oxothiazolidin-2-ylidene)-3-(2-methyl-4-(1-(4-(pentafluoro-λ^6-sulfaneyl)phenyl)-1H-imidazol-4-yl)phenyl)urea]: the pest or weed control at 50 µg/cm2 in test [1] (read-out: BAW rating) and in test [2] (read-out: CL rating) was 50 to 100% throughout.
